The subject of assay [1] is LoVo MDR multidrug resistant colon carcinoma subline. Nature of the assay: MTT cytotoxicity assay, cross-resistance profile. In kind it is cell-based, human. (Formazan colour is commonly taken as a measure of viable cells.)
The test system of another assay is LoVo-OXP cells. Kind of assay: Cellular platinum uptake by GF-AAS. Conditions: LoVo-OXP resistant cells, 5 μM, 6, 24, 48 h, FIG. 2 panel B, compared with LoVo. Type of assay: cell-based, human. The procedure: LoVo and LoVo-OXP cells (2×10^6) were seeded in 75 cm^2 flasks in growth medium (20 ml). After 24 h, the medium was replaced and the cells incubated for different times (6, 24 or 48 h) in the presence of the tested complexes. Cell monolayers were washed twice with cold PBS and harvested. Samples were subjected to three freezing/thawing cycles at −80° C., and then vigorously vortexed. Aliquots were removed for the determination of protein content by the BioRad protein assay (BioRad). The samples were treated with 1 mL of highly pure nitric acid (Pt: ≦0.01 μg×kg^−1, TraceSELECT® Ultra, Sigma Chemical Co.) and transferred into a microwave teflon vessel. Subsequently, samples were submitted to a standard procedure using a speed wave MWS-3 Berghof instrument (Eningen, Germany). After cooling, each mineralized sample was analyzed for platinum by using a Varian AA Duo graphite furnace atomic absorption spectrometer (Varian, Palo Alto, Calif.; USA) at the wavelength of […]. The calibration curve was obtained using known concentrations of standard solutions purchased from Sigma Chemical Co.
It is well-known that cellular uptake is an important factor influencing drug efficacy. […] The intracellular platinum was quantified by means of GF-AAS analysis and the results, expressed as μg metal mg^−1 of cellular proteins, are summarized in FIG. 2.

The structures appear in SMILES notation. Entries after “also recorded” stand apart in the source; their conditions may differ.

As usually defined, the IC50 is the midpoint of a concentration-inhibition curve. A lower IC50 goes with inhibition by little substance. On to `O=C1[O][Pt-2]2([NH2+]C3CCCC[C@H]3[NH2+]2)[O]C1=O` (stereo partly drawn) [oxaliplatin, [(1R,2R)-cyclohexane-1,2diamine](ethanedioato)platinum(II), reference compound], for which the “R.F. (resistance factor)” value in assay [1] (IC50 LoVo-MDR / IC50 LoVo) worked out at 1.3. In addition, in assay [1] (LoVo-MDR, 72 h, MTT), half-maximal inhibition (IC50) was put at 1.36 ± 0.81 µM. In addition, the intracellular platinum accumulation entry in the assay with LoVo-OXP cells was “remarkably decreased; also recorded: decreases remarkably”.

The record behind these values is patent US9220705B2, “Method of treating colorectal cancer” (priority 2013, dated 2015).
